This note sets out measurements from ChEMBL document CHEMBL1201862, “PubChem BioAssay data set” (2004).

The term GI50 denotes the concentration giving 50% growth inhibition.

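A five-concentration, 48-hour dose response in 96-well plates underlies each endpoint, interpolated linearly between surrounding concentrations. GI50: concentration for 50% inhibition of growth.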 Active and inactive are the calls of the source. Cut-off read from the data, not from the text of the source: active = GI50 up to about 1.1 µM and inactive = higher. Bounds are passed on as bounds.

Assay in all cases: DTP human tumour cell line panel, 48 h
The test system of assay [1] is 786-0.
Assay [2] concerns A549.
For assay [3], the system named is HCT-15.
For assay [4], the system named is HL-60.
In assay [5] the test system is HOP-62.
Assay [6] relates to HT-29.
The subject of assay [7] is IGROV-1.
Assay [8] concerns MCF7.
Assay [9] concerns MOLT-4.
Assay [10] relates to OVCAR-3.
The subject of assay [11] is OVCAR-4.
The test system of assay [12] is OVCAR-5.
Assay [13] deals with SF-295.
The subject of assay [14] is SK-MEL-28.
For assay [15], the system named is SNB-19.
For assay [16], the system named is SR.
Assay [17] has as its system U-251.
Assay [18] concerns UACC-257.
In assay [19] the test system is UACC-62.
In assay [20] the test system is SN12C.

Take `Cc1ccc(/N=N/c2c(O)c(C(=O)O)cc3ccccc23)cc1C`: the GI50 is > 100 µM (inactive) in assay [1]; > 100 µM (inactive) in assay [2]; above 100 µM in assay [3]; 46.3 µM (inactive) in assay [4]; 62.5 µM (inactive) in [5]; > 100 µM (inactive) in assay [6]. For the same compound, the GI50 in assay [7], in assay [8], in [9], in assay [10], in [11] and in [12] was > 100 µM (inactive) in each case. The GI50 in assay [13] was > 100 µM (inactive); in assay [14] it was > 100 µM (inactive); in assay [15], 46.1 µM (inactive); in assay [16], > 100 µM (inactive); in [17], 80.7 µM (inactive); in assay [18], > 100 µM (inactive). In addition, the GI50 in assay [19] was > 100 µM (inactive).
On to `Cc1cccc(NC(=S)Nc2ccccc2Cl)n1`, for which the GI50 in assay [1] is 34.3 µM (inactive); in assay [2] it was 47.6 µM (inactive); in assay [3], 76.9 µM; in assay [4], > 100 µM (inactive); in [5] it was 22.3 µM (inactive); in assay [6] it was > 100 µM (inactive). Besides, the GI50 was 30.1 µM (inactive) in assay [7]; > 100 µM (inactive) in assay [8]; > 100 µM (inactive) in assay [9]; > 100 µM (inactive) in assay [10]; 24.4 µM (inactive) in assay [11]; 81.7 µM (inactive) in [12]. The GI50 in assay [13] was 32 µM (inactive); in assay [14], > 100 µM (inactive); in assay [20], 51.8 µM (inactive); in assay [15] it was 25.1 µM (inactive); in [16] it was > 100 µM (inactive); in assay [17], 33.6 µM (inactive). The GI50 in [18] is 22.2 µM (inactive); in assay [19], 41 µM (inactive).
Take `CN(CCNC(=O)c1cn(C)c2c1ccc1cc(Cl)c(Cl)cc12)CCNC(=O)c1cn(C)c2c1ccc1cc(Cl)c(Cl)cc12`: the GI50 in [1] was 1.65 µM (inactive); in assay [2], 1.82 µM (inactive); in assay [3], 1.74 µM; in assay [4], 1.32 µM (inactive); in [5], 1.79 µM (inactive); in assay [6], 1.75 µM (inactive). Also, the GI50 in [7] was 1.53 µM (inactive); in assay [8], 1.96 µM (inactive); in [9], 0.5 µM (active); in [10], 2.18 µM (inactive); in [11], 2.5 µM (inactive); in assay [12], 2.79 µM (inactive). Also, the GI50 is 2.22 µM (inactive) in assay [13]; 1.73 µM (inactive) in assay [14]; 1.74 µM (inactive) in [20]; 2.08 µM (inactive) in [15]; 0.56 µM (active) in assay [16]; 1.77 µM (inactive) in assay [17]. For the same compound, the GI50 in assay [18] is 2.41 µM (inactive); in assay [19], 1.95 µM (inactive).
Turning to `O=c1c2cccnc2cc(-c2ccccc2)n1CCO`, the GI50 in [1] is > 100 µM (inactive); in [2], > 100 µM (inactive); in assay [3] it was above 100 µM; in assay [4] it was > 100 µM (inactive); in [5], > 100 µM (inactive); in assay [6], > 100 µM (inactive). The GI50 in assay [7], in assay [8], in assay [9], in [10], in assay [11] and in [12] was > 100 µM (inactive) throughout. Also, the GI50 in [13], in assay [14], in assay [20], in assay [15], in [16] and in [17] was > 100 µM (inactive) in each case. For the same compound, the GI50 in assay [18] and in assay [19] was > 100 µM (inactive) in each case.
As for `CNC(=O)Nc1nc2cc([N+](=O)[O-])ccc2[nH]1`, the GI50 in [1] is > 100 µM (inactive); in assay [2] it was > 100 µM (inactive); in assay [3], above 100 µM; in [4], 49 µM (inactive); in assay [5] it was > 100 µM (inactive); in assay [6], > 100 µM (inactive). Further, the GI50 was 64.6 µM (inactive) in assay [7]; > 100 µM (inactive) in assay [8]; > 100 µM (inactive) in assay [9]; > 100 µM (inactive) in assay [10]; > 100 µM (inactive) in assay [11]; > 100 µM (inactive) in assay [12]. For the same compound, the GI50 in assay [13] was > 100 µM (inactive); in assay [14], > 100 µM (inactive); in [20], > 100 µM (inactive); in assay [15] it was > 100 µM (inactive); in assay [16] it was 47.1 µM (inactive); in assay [17], > 100 µM (inactive). In addition, the GI50 in [18] was > 100 µM (inactive).
For the compound `CC1CC(=O)N(N(C)C)C(C#N)(C#N)C1(C#N)C#N` (configuration not stated), the GI50 in [1] was 12.2 µM (inactive); in assay [2], 24.8 µM (inactive); in [3], 16.3 µM; in [4] it was 0.653 µM (active); in assay [5], 26.1 µM (inactive); in assay [6], 17.2 µM (inactive). The GI50 in assay [7] was 20.2 µM (inactive); in assay [8], 22.4 µM (inactive); in [9] it was 1.87 µM (inactive); in assay [10] it was 20.5 µM (inactive); in assay [11] it was 18.3 µM (inactive); in assay [12], 23.9 µM (inactive). The GI50 in [13] was > 50.1 µM (inactive); in assay [14] it was 16.1 µM (inactive); in [20], 21 µM (inactive); in assay [15], 28.7 µM (inactive); in [16] it was 4.99 µM (inactive); in assay [17], 20.9 µM (inactive). Besides, the GI50 in [18] was 15.1 µM (inactive); in assay [19] it was 18.3 µM (inactive).
Take `CCCCN1C(=O)CC2[C@@H]3CCc4cc(OC(C)=O)ccc4C3CC[C@]2(C)C1=O` (some centres not stated): the GI50 in [1] is > 10 µM (inactive); in assay [2], > 10 µM (inactive); in assay [3], above 10 µM; in assay [4] it was 9.42 µM (inactive); in assay [5], > 10 µM (inactive); in assay [6] it was > 10 µM (inactive). Moreover, the GI50 in assay [7], in assay [8], in assay [9], in assay [10], in assay [11] and in assay [12] was > 10 µM (inactive) each time. The GI50 in [13], in [14], in assay [20], in assay [15], in assay [16] and in [17] was > 10 µM (inactive) in each case. Besides, the GI50 in assay [18] and in assay [19] was > 10 µM (inactive) throughout.
For the compound `NC(=O)CCC(NC(=O)c1cccc2c(=O)c3ccccc3[nH]c12)C(=O)O` (configuration not stated), the GI50 in assay [1] was > 100 µM (inactive); in assay [2], > 100 µM (inactive); in assay [3], above 100 µM; in assay [4], > 100 µM (inactive); in assay [5] it was > 100 µM (inactive); in [6], > 100 µM (inactive). Moreover, the GI50 in [7], in assay [8], in assay [9], in assay [10], in assay [11] and in assay [12] was > 100 µM (inactive) in each case. For the same compound, the GI50 in assay [13], in assay [14], in [20], in [15], in assay [16] and in assay [17] was > 100 µM (inactive) in each case. Also, the GI50 in assay [19] was > 100 µM (inactive).
Regarding `O=C1c2cc3c(cc2CC1Br)CCC3` (configuration not stated), the GI50 is 1.8 µM (inactive) in [1]; 18.2 µM (inactive) in assay [2]; 1.96 µM in [3]; 2.9 µM (inactive) in assay [4]; 13.8 µM (inactive) in assay [5]; 2.36 µM (inactive) in assay [6]. Further, the GI50 in assay [7] is 2.86 µM (inactive); in assay [8], 2.07 µM (inactive); in assay [9] it was 0.953 µM (active); in assay [10] it was 2.03 µM (inactive); in assay [11] it was 1.85 µM (inactive); in assay [12], 5.64 µM (inactive). In addition, the GI50 is 5.19 µM (inactive) in assay [13]; 3.1 µM (inactive) in assay [14]; 1.7 µM (inactive) in assay [20]; 12.4 µM (inactive) in assay [15]; 0.787 µM (active) in [16]; 3.26 µM (inactive) in assay [17]. In addition, the results for the GI50 in [18] and in [19] were 2.23 µM (inactive) and 3.3 µM (inactive), respectively.
On to `O=C1/C(=C/c2ccc(Cl)cc2)CCC1CN1CCOCC1` (configuration not stated), for which the GI50 in [1] was 2.48 µM (inactive); in assay [2], 27.4 µM (inactive); in [3], 3.83 µM; in assay [4], 0.836 µM (active); in assay [5], 16.1 µM (inactive); in assay [6], 7.03 µM (inactive). Besides, the GI50 was 6.32 µM (inactive) in assay [7]; 3.77 µM (inactive) in assay [8]; 1.12 µM (inactive) in [9]; 6.37 µM (inactive) in assay [10]; 17.5 µM (inactive) in assay [11]; 23.2 µM (inactive) in assay [12]. For the same compound, the GI50 in assay [13] is 17.5 µM (inactive); in [14], 8 µM (inactive); in [20], 3.78 µM (inactive); in [15], 14.8 µM (inactive); in assay [16], 0.687 µM (active); in [17], 15.9 µM (inactive). For the same compound, the GI50 is 8.73 µM (inactive) in assay [18] and 5.51 µM (inactive) in assay [19].
